Measured values taken from patent EP2373670B1, “NOVEL AMINO SUBSTITUTED C-GLYCOSIDE DERIVATIVES AND USE THEREOF AS COSMETIC” (L'Oréal, priority 2008, dated 2010).

Key:
Format in all cases: cell-based
[1] = system: kératinocytes; assay: Synthesis of sulfated glycosaminoglycans (radioactive label incorporation) in keratinocyte cultures; settings: keratinocytes, second experiment, n=2
[2] = system: fibroblastes dermiques humains normaux; assay: Synthesis of sulfated glycosaminoglycans (radioactive label incorporation) in fibroblast cultures; settings: fibroblasts, second experiment, n=2; for activity at 100 µM / activity at 1000 µM: Fibroblast, control = 100, read-out: % (synthèse des glycosaminoglycanes par rapport au témoin)
[3] = system: fibroblastes dermiques humains normaux; assay: as above; settings: for augmenter la synthèse des GAGs sulfatés: summary in words of the results on fibroblasts and keratinocytes
Text: (§1) Etude de l'effet de dérivés C-glycosides sur la synthèse des glycosaminoglycannes sulfatés sur fibroblastes et sur kératinocytes : • L'étude est faite par mesure de l'incorporation de glucosamine radioactive dans la matrice néosynthétisée par des cultures de fibroblastes dermiques humains normaux ou par des kératinocytes. L'incorporation de glucosamine radioactive indique une néosynthèse spécifique de glycosaminoglycannes via une incorporation de la forme acétylée de cette glucosamine.
Les cultures de fibroblastes sont effectuées selon les méthodes classiques de culture cellulaire, à savoir en milieu DMEM vendu par la société Gibco, en présence de L-glutamine (2 mM), de pénicilline (50 Ul/ml) et de 10% de sérum de veau foetal (Gibco).
(§2) Les fibroblastes et les kératinocytes ont été cultivés en plaques de 96 puits. A confluence, le milieu de culture a été remplacé par du milieu de culture adéquat contenant ou non (témoin) le composé à tester ou la référence, puis les cellules ont été incubées pendant 48 heures. Le marqueur radioactif 35 S-sulfate a été ajouté (40 µCi final) et les cellules ont été incubées pendant 24 heures supplémentaires. Toutes les conditions ont été réalisées 3 fois.
(§3) Les glycosaminoglycanes de la matrice extracellulaire ont été extraits avec un volume tampon chaotropique (Tris/HCl 50 mM, guanidine 4 M, EDTA 5 mM, pH 8,0). Les GAGs sulfatés ont été purifiés par chromatographie d'échanges d'ions : absorption des molécules anioniques sur billes de Q-Sépahrose dans des conditions de forte stringence, désorption des molécules peu et moyennement anioniques avec uns solution urée 6 M NaCl […], puis lavages. La radioactivité incorporée dans les molécules […] restées sur le support (GAGs majoritairement) a été mesurée par scintillation liquide. Les résultats sont évalués par apport à un témoin constitué par des cellules n'ayant pas été traitées avec un composé de formule (I). Un témoin positif (TGFβ à 10 ng/ml) connu pour stimuler la synthèse des GAGs est introduit dans le test effectéu sur fibroblastes comme référence positive. Un témoin positif (CaCl2 à 1,4 mM) connu pour stimuler la synthèse des GAGs est introduit dans le test effectué sur kératinocytes comme référence positive.
(§4) Les résultats sont exprimés en pourcentage de variation de la synthèse des glycosaminoglycanes par rapport au témoin.
(§5) On a effectué 3 essais pour le composé testé.
(§6) Les comparaisons des résultats obtenus pour un composé testé ont été réalisés à l'aide du test de Student.
(§7) L'écart type de la moyenne (esm) a été calculé selon la relation suivante : esm = écart type/((n))^(1/2) [formula] • n étant le nombre d'essais effectués.
(§8) Les valeurs mesurées sont données en coups par minute (cpm) • n : nombre d'essais effectués • p : intervalle de confiance • esm : écart type de la moyenne

[4] = system: kératinocytes; assay: Synthesis of sulfated glycosaminoglycans (radioactive label incorporation) in keratinocyte cultures; settings: keratinocytes, n=3
Text: as §1
Les cultures de kératinocytes sont effectuées en milieu Keratinocyte-SFM vendu par la société Gibco , en présence d'EGF (Epidermal Growth Factor) (0,25 ng/ml), d'extrait pituitaire (25 µg/ml) et de gentamycine (25 µg/ml).
as §2, §3, §4, §5, §6, §7, §8

[5] = Keratinocyte, 0,1 mM, control = 100, read-out: % (synthèse des glycosaminoglycanes par rapport au témoin)
[6] = Keratinocyte, 1 mM, control = 100, read-out: % (synthèse des glycosaminoglycanes par rapport au témoin)

| SMILES | activity at 100 µM [1, 5] | activity at 1000 µM [1, 6] | Valeur moyenne ([1]; 0,1 mM) | Valeur moyenne ([1]; 1 mM) | activity at 100 µM ([2]; 0,1 mM) | activity at 1000 µM ([2]; 1 mM) | Valeur moyenne ([2]; 0,1 mM) | Valeur moyenne ([2]; 1 mM) | augmenter la synthèse des GAGs sulfatés [3] | other results |
| --- | --- | --- | --- | --- | --- | --- | --- | --- | --- | --- |
| CCCCCCNC(C)C[C@@H]1OC[C@@H](O)[C@H](O)[C@H]1O (some centres unmarked) [Composé de l'exemple 10] | 427% | 255% | 54897 cpm | 32733 cpm | 553% | 595% | 13925 cpm | 14992 cpm | très efficaces | – |
| CNC(C)C[C@@H]1OC[C@@H](O)[C@H](O)[C@H]1O (stereo partly drawn) [1-[2-(méthylamino)-propyl]-C-β-D-xylopyranose] | 93% | 139% | 11922 cpm | 17916 cpm | 102% | 106% | 2569 cpm | 2659 cpm | – | – |
| CCCNC(C)C[C@@H]1OC[C@@H](O)[C@H](O)[C@H]1O (some centres unmarked) [Composé de l'exemple 11] | – | – | – | – | 127% | 441% | 3197 cpm | 11109 cpm | très efficaces | activity at 0.1 µM ([1]; Keratinocyte, 0,1 µM, control = 100, read-out: % (synthèse des glycosaminoglycanes par rapport au témoin)): 112%; activity at 1 µM ([1]; Keratinocyte, 1 µM, control = 100, read-out: % (synthèse des glycosaminoglycanes par rapport au témoin)): 351%; Valeur moyenne ([1]; 0,1 µM): 14408 cpm; Valeur moyenne ([1]; 1 µM): 45124 cpm |
| CC(C[C@@H]1OC[C@@H](O)[C@H](O)[C@H]1O)NCCCO (stereo partly drawn) [1-[2-(3-hydroxy-propylamino)-propyl]-C-β-D-xylopyranose] | 99% | 145% | 12660 cpm | 18691 cpm | 113% | 121% | 2856 cpm | 3039 cpm | – | – |
| CC(N)C[C@@H]1OC[C@@H](O)[C@H](O)[C@H]1O (stereo partly drawn) [1-[2-amino-propyl]-C-β-D-xylopyranose] | 113% | 225% | 14465 cpm | 28870 cpm | 91% | 139% | 2301 cpm | 3507 cpm | – | – |
| [Ca+2].[Cl-].[Cl-] [CaCl2, reference compound] | – | – | – | – | – | – | – | – | – | % (synthèse des glycosaminoglycanes par rapport au témoin) ([4]; positive control CaCl2 at 1,4 mM, control = 100, 1400 µM): 117%; Valeur moyenne ([4]; positive control CaCl2 at 1,4 mM): 5273 cpm |
| CCOC(=O)C(Cc1ccccc1)NC(C)CC1OCC(O)C(O)C1O [Composé de l'exemple 5, chlorhydratede l'ester éthyliquede l'acide 2R-[1-méthyl 2-(C-β-D-xylopyranoside) éthyl]-amino 3-phényl propanoïque] | – | – | – | – | – | – | – | – | très efficaces | activity at 66 µM ([4]; Keratinocyte, 66 µM, control = 100, read-out: % (synthèse des glycosaminoglycanes par rapport au témoin)): 438%; activity at 200 µM ([4]; Keratinocyte, 200 µM, control = 100, read-out: % (synthèse des glycosaminoglycanes par rapport au témoin)): 570%; Valeur moyenne ([4]; 66 µM): 21975 cpm; Valeur moyenne ([4]; 200 µM): 29007 cpm; activity at 370 µM ([3]; Fibroblast, fibroblasts, 0,37 mM, control = 100, n=3, read-out: % (synthèse des glycosaminoglycanes par rapport au témoin)): 616%; activity at 1110 µM ([3]; Fibroblast, fibroblasts, 1,11 mM, control = 100, n=3, read-out: % (synthèse des glycosaminoglycanes par rapport au témoin)): 605%; Valeur moyenne ([3]; fibroblasts, 0,37 mM, n=3): 14373 cpm; Valeur moyenne ([3]; fibroblasts, 1,11 mM, n=3): 14111 cpm |
